Measurements as given in patent US20250049779A1, “COMBINATION OF AN A2-ADRENOCEPTOR SUBTYPE C (ALPHA-2C) ANTAGONIST WITH A NOREPINEPHRINE REUPTAKE INHIBITOR FOR THE TREATMENT OF SLEEP APNEA” (Bayer Aktiengesellschaft, priority 2021, published 2025).

Tested on: upper airway collapsibility
Experiment: pig model of obstructive sleep apnea (OSA): collapse of the upper respiratory tract induced by negative pressure in anaesthetized, spontaneously breathing pigs
Type: in vivo, German Landrace pigs
Details: for Percent pigs without collaps −150 cm H2O, %: −150 cm H2O (column head; title prints −100)
Source text: The therapeutic potential of the combination of an α2-Adrenoceptor subtype C (alpha-2C) antagonists with a noradrenaline reuptake inhibitor according to the present invention in sleep apnea can be assessed preclinically in a pig model of obstructive sleep apnea (OSA).
Using negative pressure, it is possible to induce collapse and thus obstruction of the upper respiratory tract in anaesthetized, spontaneously breathing pigs (Wirth K. J. et al., Sleep 36(5) (2013) pp. 699-708).
German Landrace pigs are used for the model. The pigs are anaesthetized and tracheotomized. Two tracheal cannulas are inserted into the trachea, one into the rostral part and the other into the caudal part of the trachea. Using a connection piece, the rostral cannula is connected to a tube to the negative pressure device and to the distal tracheal cannula. The distal tracheal cannula is additionally connected to a tube with an open end to atmosphere via a connection piece that served for free tracheal breathing, circumventing the upper airway. By appropriate opening and clamping of those tubes breathing can be switched from nasal breathing to breathing through the caudal tracheal cannula, circumventing the upper airway, and the (isolated) upper airway can be connected to the negative pressure device, causing airflow in the inspiratory direction.
At certain points in time, the collapsibility of the upper respiratory tract is tested by having the pig breathe via the caudal cannula and applying negative pressures of −50, −100 and −150 cm water head (cm H2O) to the upper respiratory tract. This causes the upper respiratory tract to collapse, which manifests itself in an interruption of the airflow and a pressure drop in the tube system. This test is conducted prior to the administration of the test substance and at certain intervals after the administration of the test substance. An appropriately effective test substance can prevent this collapse of the respiratory tract in the inspiratory phase.

[1] = intravenous bolus 20 μg/kg then infusion 12.5 μg/kg/h for four hours, time 0 min (time of administration)
[2] = intravenous bolus 20 μg/kg then infusion 12.5 μg/kg/h for four hours, time 10 min
[3] = intravenous bolus 20 μg/kg then infusion 12.5 μg/kg/h for four hours, time 30 min
[4] = intravenous bolus 20 μg/kg then infusion 12.5 μg/kg/h for four hours, time 60 min
[5] = intravenous bolus 20 μg/kg then infusion 12.5 μg/kg/h for four hours, time 120 min
[6] = intravenous bolus 20 μg/kg then infusion 12.5 μg/kg/h for four hours, time 180 min
[7] = intravenous bolus 20 μg/kg then infusion 12.5 μg/kg/h for four hours, time 240 min

CNCC[C@@H](Oc1ccccc1C)c1ccccc1 [atomoxetine]
inhibited upper airway collapsibility at all negative pressures of −50, −100 and −150 cm head (cm H2O) in all pigs (intravenous bolus 20 μg/kg then infusion 12.5 μg/kg/h for four hours): at no time | Percent pigs without collaps −50 cm H2O, % [1]: 0% | Percent pigs without collaps −50 cm H2O, % [2]: 0% | Percent pigs without collaps −50 cm H2O, % [3]: 0% | Percent pigs without collaps −50 cm H2O, % [4]: 0% | Percent pigs without collaps −50 cm H2O, % [5]: 0% | Percent pigs without collaps −50 cm H2O, % [6]: 0% | Percent pigs without collaps −50 cm H2O, % [7]: 0% | Percent pigs without collaps −100 cm H2O, % [1]: 0% | Percent pigs without collaps −100 cm H2O, % [2]: 0% | Percent pigs without collaps −100 cm H2O, % [3]: 0% | Percent pigs without collaps −100 cm H2O, % [4]: 0% | Percent pigs without collaps −100 cm H2O, % [5]: 0% | Percent pigs without collaps −100 cm H2O, % [6]: 0% | Percent pigs without collaps −100 cm H2O, % [7]: 0% | Percent pigs without collaps −150 cm H2O, % [1]: 0% | Percent pigs without collaps −150 cm H2O, % [2]: 0% | Percent pigs without collaps −150 cm H2O, % [3]: 0% | Percent pigs without collaps −150 cm H2O, % [4]: 0% | Percent pigs without collaps −150 cm H2O, % [5]: 0% | Percent pigs without collaps −150 cm H2O, % [6]: 0% | Percent pigs without collaps −150 cm H2O, % [7]: 0%

C[C@@H]1CCCN(C2CCN(c3ncc(C(=O)NCc4ncc(F)cc4F)s3)CC2)C1 [N-[(3,5-difluoropyridin-2-yl)methyl]-2-[(3R)-3-methyl[1,4′-bipiperidin]-1′-yl]-1,3-thiazole-5-carboxamide]
inhibited upper airway collapsibility at all negative pressures of −50, −100 and −150 cm head (cm H2O) in all pigs (0.01 mg/kg intraduodenal): at no time point | upper airway collapsibility at the negative pressures of −50 and −100 cm head (cm H2O) (0.01 mg/kg intraduodenal, 120 min after administration): inhibited | upper airway collapsibility at the negative pressure of −50 cm head (cm H2O) (0.01 mg/kg intraduodenal, 150 min after administration): inhibited
